Tests used:
[1] = biological target: T1, Orexin/Hypocretin receptor type 1 (Homo sapiens, UniProt O43613); experiment: (§1) Radioligand Binding Assay I : For crude cell membrane preparations, cells (CHO, Chinese hamster ovary or HEK, human embryonic kidney) expressing human orexin 1 or human orexin 2 receptors, were washed with HEPES (10 mM, pH 7.5), scraped off the culture plates with the same buffer, and centrifuged at 4 C for 5 min at 2500 x g. The cell pellet was either stored at -80 C or used directly. Before the experiments, cell membranes were re-suspended in binding assay buffer (10 mM HEPES, 0.5% (w/v) bovine serum albumin, pH 7.5) by homogenisation with a Polytron homogeniser at 50 Hz for 20 s. In competition experiments, cell homogenates (150μΙ) were incubated in assay buffer (10 mM HEPES, pH 7.5, 0.5 % (w/v) bovine serum albumin, 5 mM MgCI2, 1 mMCaCI2, and tween 0.05%) for 1 h at room temperature with about 100 pM of the radioligand ([125l]orexin A, 2100 Ci/mmole, 50 μΙ), and with various concentrations of compounds of the invention (50 μΙ) in triplicates.
T1 sequence (O43613 whole entry): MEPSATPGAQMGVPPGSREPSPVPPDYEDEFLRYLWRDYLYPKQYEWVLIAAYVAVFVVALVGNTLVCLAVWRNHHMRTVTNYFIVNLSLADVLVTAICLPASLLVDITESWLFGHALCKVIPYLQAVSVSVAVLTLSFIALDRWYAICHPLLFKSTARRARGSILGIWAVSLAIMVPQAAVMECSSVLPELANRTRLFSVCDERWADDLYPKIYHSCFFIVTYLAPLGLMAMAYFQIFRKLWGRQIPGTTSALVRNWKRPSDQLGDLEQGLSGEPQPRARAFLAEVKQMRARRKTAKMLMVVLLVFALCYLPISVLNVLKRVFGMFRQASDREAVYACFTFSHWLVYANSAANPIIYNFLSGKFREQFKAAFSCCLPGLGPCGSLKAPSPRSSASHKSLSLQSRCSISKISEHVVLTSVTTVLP

Orexin receptor type 2 = biological target: T2, Orexin receptor type 2 (Homo sapiens, UniProt O43614); experiment: as §1
T2 sequence (O43614 whole entry): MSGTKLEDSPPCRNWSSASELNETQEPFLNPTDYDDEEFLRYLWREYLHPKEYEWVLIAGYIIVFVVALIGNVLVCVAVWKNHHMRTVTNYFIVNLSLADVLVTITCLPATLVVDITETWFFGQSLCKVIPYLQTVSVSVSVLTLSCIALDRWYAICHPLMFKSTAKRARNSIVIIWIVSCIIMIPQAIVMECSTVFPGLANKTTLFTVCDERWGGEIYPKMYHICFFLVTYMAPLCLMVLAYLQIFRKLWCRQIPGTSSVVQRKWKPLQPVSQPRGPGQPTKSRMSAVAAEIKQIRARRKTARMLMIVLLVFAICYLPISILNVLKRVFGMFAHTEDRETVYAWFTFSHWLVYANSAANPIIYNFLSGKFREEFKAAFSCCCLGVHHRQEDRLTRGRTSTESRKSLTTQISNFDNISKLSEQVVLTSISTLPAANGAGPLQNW

C[C@H](NC(=O)COc1cc(C(F)(F)F)c2c(-c3cccc(Cl)c3)nn(C)c2n1)c1ccccc1
Kd [1]: 114 nM | Kd (Orexin receptor type 2): 477 nM
